The values below come from patent US10751301B2, “Methods for inhibiting conversion of choline to trimethylamine (TMA)” (The Procter & Gamble Company, priority 2017, dated 2020).

Molecules are shown by their SMILES. Read-outs that look alike come from different tables or passages of the source.

Data set [1] deals with C57b1/6 female mice. Kind of data set: Rapid preclinical method, d9-choline challenge in mice (Example 6). It counts as in vivo. As to conditions: for Calculated EC50 (mg/kg) compared to Vehicle Control: mice, oral gavage with 2 mg d9-Choline, Time 3 hr.
For data set [2], the system named is mice (C57b1/6). Kind of data set: Preclinical screening method, plasma TMAO in mice on 1% choline added diet (Example 4). The data set is classed as in vivo. Conditions: oral gavage once daily, 310 mg/kg/day.
In data set [3] the target is recombinant D. alaskensis Cut C/D lysate (Oleidesulfovibrio alaskensis, UniProt Q30W70). The experiment in a line: biochemical.
recombinant D. alaskensis Cut C/D lysate, sequence (Q30W70 whole entry): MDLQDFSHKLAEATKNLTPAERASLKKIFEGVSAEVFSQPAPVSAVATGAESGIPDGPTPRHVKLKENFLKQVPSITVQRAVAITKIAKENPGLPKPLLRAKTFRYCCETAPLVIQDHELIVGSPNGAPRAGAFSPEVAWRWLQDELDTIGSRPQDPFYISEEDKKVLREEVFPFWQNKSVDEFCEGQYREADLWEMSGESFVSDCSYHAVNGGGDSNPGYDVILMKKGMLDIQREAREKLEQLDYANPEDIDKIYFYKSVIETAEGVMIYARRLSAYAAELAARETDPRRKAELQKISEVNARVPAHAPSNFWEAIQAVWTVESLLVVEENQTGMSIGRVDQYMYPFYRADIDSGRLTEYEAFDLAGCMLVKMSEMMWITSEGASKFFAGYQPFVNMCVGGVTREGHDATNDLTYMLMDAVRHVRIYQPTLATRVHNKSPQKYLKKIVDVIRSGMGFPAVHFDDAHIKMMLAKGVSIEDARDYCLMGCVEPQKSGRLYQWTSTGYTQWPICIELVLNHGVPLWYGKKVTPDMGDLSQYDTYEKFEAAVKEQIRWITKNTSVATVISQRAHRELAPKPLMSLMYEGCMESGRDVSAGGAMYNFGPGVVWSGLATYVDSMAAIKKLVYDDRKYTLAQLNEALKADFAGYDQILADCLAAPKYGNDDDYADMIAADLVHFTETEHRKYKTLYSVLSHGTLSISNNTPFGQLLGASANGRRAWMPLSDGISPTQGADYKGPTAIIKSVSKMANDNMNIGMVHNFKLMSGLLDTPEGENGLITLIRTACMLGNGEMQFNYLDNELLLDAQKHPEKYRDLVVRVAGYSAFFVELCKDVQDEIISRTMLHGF
Data set [4] has as its target recombinant P. mirabilis Cut C/D lysate (Proteus mirabilis, UniProt B4EYG1). Kind of data set: biochemical.
Data set [5] has as its system whole cell wild-type P. mirabilis. The experiment in a line: Inhibition of conversion of choline to TMA by whole cell wild-type P. mirabilis (Example 5). The data set is classed as cell-based.
Data set [6] has as its system human fecal polymicrobial community. Kind of data set: Human fecal polymicrobial incubation with d9-choline, TMA inhibition (Example 3). It counts as cell-based.
Data set [7] deals with Proteus mirabilis 29906 (Pm) lysate. The experiment in a line: Inhibition of formation of TMA from choline in Proteus mirabilis lysate (Example 2). Conditions: read-out: TMA Inhibition (IC50, mol/L). It counts as biochemical.
Data set [8] has as its system fecal polymicrobial community. As to conditions: male, human.
Setting [9] is: Proteus mirabilis; read-out: EC50 (mol/L) whole cell wild-type P. mirabilis.
Setting [10] is: Homo sapiens, 0.2% fecal slurry, 50 μM d9-choline chloride, 20 hours, 37° C., anaerobic, ND=not detectable, read-out: Example 3, TMA Inhibition (IC50, mol/L).
[11] abbreviates: Pm lysate 1.5 mg/mL protein, 50 μM d9-choline chloride, 37° C. two hours.

Turning to `C=CC[S+](C)CCO` (stereo not shown) [ID 1, Allyl-(2-hydroxyethyl)-methyl-sulfonium], the “Calculated EC50 (mg/kg) compared to Vehicle Control” value in data set [1] was 0.87 mg/kg. Further, in data set [2] (Days 1), the “Remaining plasma TMAO as a percentage of plasma TMAO in same day vehicle control (% of control remaining)” value turned out to be 18%. Moreover, the IC50 is 307 nM in data set [3] and 98.2 nM in data set [4]. For the same compound, the EC50 in data set [5] (setting [9]) amounted to 73 nM.
Turning to `C#CC[S+](C)CCO` (stereo not shown) [ID 2, Propargyl-(2-hydroxyethyl)-methyl-sulfonium], the “Calculated EC50 (mg/kg) compared to Vehicle Control” value in data set [1] was 85.50 mg/kg. Also, the IC50 in data set [3] came to 65 nM; in data set [4], 47 nM. In addition, the EC50 in data set [5] (setting [9]) was 930 nM.
As to `C[S+](CI)CCO` (stereo not shown) [ID 6, Iodomethyl-(2-hydroxyethyl)-methyl-sulfonium], the “Calculated EC50 (mg/kg) compared to Vehicle Control” value in data set [1] was 1.10 mg/kg. In addition, the “Remaining plasma TMAO as a percentage of plasma TMAO in same day vehicle control (% of control remaining)” value in data set [2] (Days 1) is 3%. The results for the IC50 in data set [3] and in data set [4] were 3700 nM and 360 nM, respectively. The EC50 in data set [5] (Proteus mirabilis, read-out: EC50 (mol/L) whole cell wild-type P. mirabilis) came to 200 nM.
Regarding `C/C=C/C[S+](C)CCO` (stereo not shown) [ID 8, [(E)-but-2-enyl]-(2-hydroxyethyl)-methyl-sulfonium], the “Remaining plasma TMAO as a percentage of plasma TMAO in same day vehicle control (% of control remaining)” value in data set [2] (Days 1) stood at 62%. Moreover, the IC50 was 270 nM in data set [3] and 1500 nM in data set [4]. Moreover, the EC50 in data set [5] (setting [9]) was 9500 nM.
As to `C=C(C)C[S+](C)CCO` (stereo not shown) [ID 9, 2-hydroxyethyl-methyl-(2-methylallyl)sulfonium], the IC50 in data set [3] was determined as 650 nM; in data set [4], 5900 nM. Moreover, the EC50 in data set [5] (setting [9]) was determined as 23000 nM.
`C[S+](CCO)CC(=O)O` (stereo not shown) [ID 15, 2-Acetic acid-(2-hydroxyethyl)-methyl-sulfonium]: the “Remaining plasma TMAO as a percentage of plasma TMAO in same day vehicle control (% of control remaining)” value in data set [2] (Days 5) amounted to 69%. Also, the IC50 in data set [3] (read-out: IC50 (mol/L) recombinant D. alaskensis Cut C/D lysate) is 45 nM; in data set [4] (read-out: IC50 (mol/L) recombinant P. mirabilis Cut C/D lysate), 430 nM. In addition, the EC50 in data set [5] (read-out: EC50 (mol/L) whole cell wild-type P. mirabilis) was 62 nM.
On to `C#CC[S+](C)C` [ID 20, Dimethyl(prop-2-ynyl)sulfonium], for which the “Calculated EC50 (mg/kg) compared to Vehicle Control” value in data set [1] is recorded as 9.00 mg/kg. Further, the “Remaining plasma TMAO as a percentage of plasma TMAO in same day vehicle control (% of control remaining)” value in data set [2] (Days 1) is listed as 0.35%. The figures for the IC50 in data set [3] and in data set [4] were 68 nM and 13 nM, respectively. In data set [5] (setting [9]), the EC50 is 75000 nM.
Consider `C=CC[S+](C)C` [ID 21, Allyl(dimethyl)sulfonium], for which the “Calculated EC50 (mg/kg) compared to Vehicle Control” value in data set [1] is 0.19 mg/kg. The IC50 in data set [3] stood at 410 nM; in data set [4], 250 nM. In data set [5] (setting [9]), the EC50 was found to be 160 nM.
As for `CC[S+](C)CCO.[I-]` (stereo not shown) [Methylethylthioethanol iodide], the “EC50, inhibits the conversion of choline to TMA, assay of EXAMPLE 6” value in data set [1] (time not given) is 0.8 mg/kg. Moreover, the IC50 in data set [6] (Homo sapiens, read-out: IC50, inhibits the conversion of choline to TMA, assay of Example 3) is 8890 nM.
Take `C=CC[S+](C)CCO` (stereo not shown) [compound 1, Allyl-(2-hydroxyethyl)-methyl-sulfonium]: the IC50 in data set [6] (setting [10]) worked out at 41700 nM; in data set [7] (setting [11]), 45.7 nM.
For `C#CC[S+](C)CCO` (stereo not shown) [compound 2, Propargyl-(2-hydroxyethyl)-methyl-sulfonium], the results for the IC50 in data set [6] (setting [10]) and in data set [7] (setting [11]) were 2980 nM and 38 nM, respectively.
With `CCCCC[S+](C)CCO` (stereo not shown) [compound 3, Pentyl-(2-hydroxyethyl)-methyl-sulfonium], the IC50 was found to be 51300 nM in data set [6] (setting [10]) and 398000 nM in data set [7] (setting [11]).
As for `CCCCCC[S+](C)CCO` (stereo not shown) [compound 4, Hexyl-(2-hydroxyethyl)-methyl-sulfonium], the IC50 in data set [6] (setting [10]) came out at 612000 nM; in data set [7] (setting [11]), 58900 nM.
`C#CC[S+](CCO)c1ccccc1` (stereo not shown) [compound 5, (2-hydroxyethyl)(phenyl)(prop-2-yn-1-yl)sulfonium]: the IC50 in data set [7] (setting [11]) stood at 200000 nM.
On to `C[S+](CI)CCO` (stereo not shown) [compound 6], for which the “Lowest concentration tested at which cell viability was 10% or lower” value in data set [8] was 250 µM. For the same compound, the IC50 in data set [7] came out at 2040 nM.
Turning to `C=CC[S+]1CCOCC1` [compound 7, 4-allyl-1,4-oxathian-4-ium], the IC50 in data set [7] (setting [11]) came to 15800 nM.
Same read-out and setting: then `C/C=C/C[S+](C)CCO` (stereo not shown) [compound 8, [(E)-but-2-enyl]-(2-hydroxyethyl)-methyl-sulfonium], with 15.1 nM.
As for `C=C(C)C[S+](C)CCO` (stereo not shown) [compound 9, 2-hydroxyethyl-methyl-(2-methylallyl)sulfonium], the IC50 in data set [7] (setting [11]) is 166000 nM.
The same measure, in the same setting: the result for `C[S+](C/C=C/Br)CCO` (stereo not shown) [compound 10, [(E)-3-bromoallyl]-(2-hydroxyethyl)-methyl-sulfonium] reads 251 nM.
Turning to `C[S+](CCO)CCBr` (stereo not shown) [compound 11, (2-bromoethyl)(2-hydroxyethyl)methylsulfonium], the IC50 in data set [6] (Homo sapiens, 20 h, read-out: Example 3, TMA Inhibition (IC50, mol/L)) is 3050 nM; in data set [7] it was 219 nM.
For the compound `C[S+](CCO)Cc1ccccc1` (stereo not shown) [compound 13], the IC50 in data set [6] (setting [10]) was found to be 12700 nM; in data set [7] (setting [11]) it was 44700 nM.
As to `CCCC[S+](C)CCO` (stereo not shown) [compound 14, Butyl-(2-hydroxyethyl)-methyl-sulfonium], the IC50 was determined as 557 nM in data set [6] (setting [10]) and 29500 nM in data set [7] (setting [11]).
Taken in the same sequence, the figures for `C[S+](CCO)c1ccccc1` (stereo not shown) [compound 16, Phenyl-(2-hydroxyethyl)-methyl-sulfonium] were 1640 nM and 302000 nM.
Turning to `CC[S+](CCO)c1ccccc1` (stereo not shown) [compound 17, Phenyl-(2-hydroxyethyl)-ethyl-sulfonium], the results for the IC50 in data set [6] (setting [10]) and in data set [7] (setting [11]) were 760000 nM and 190000 nM, respectively.
For `[O-][S+](CCO)c1ccccc1` (stereo not shown) [compound 18, 2-hydroxyethyl-oxido-phenyl-sulfonium] the same measures were 22000 nM and 129000 nM.
Regarding `[O-][S+]1CCOCC1` [compound 19, 4-oxido-1,4-oxathian-4-ium], the IC50 in data set [6] (read-out: Example 3, TMA Inhibition (IC50, mol/L)) came to 24300 nM; in data set [7], 234000 nM.
On to `C#CC[S+](C)C` [compound 20], for which the IC50 in data set [6] (setting [10]) was 108 nM; in data set [7] (setting [11]), 10 nM.
For `C=CC[S+](C)C` [compound 21] the same measures were 1460 nM and 66.1 nM.
For `C=CC[S+]([O-])CCO` (stereo not shown) [compound 22, Allyl-(2-hydroxyethyl)-oxido-sulfonium] the same measures were 101000 nM and 3800 nM.
With `OCC[S+]1CCOCC1` [compound 23, 2-(1,4-oxathian-4-ium-4-yl)ethanol], in data set [7], the IC50 was 10700 nM.
On to `C#CC[S+]1CCOCC1` [compound 24, 4-prop-2-ynyl-1,4-oxathian-4-ium], for which the IC50 in data set [7] (setting [11]) came out at 55000 nM.
